From ChEMBL document CHEMBL1135380, “Synthesis and structure-activity relationship of 2-(aminoalkyl)-2,3,3a,8-tetrahydrodibenzo[c,f]isoxazolo[2,3-a]azepine derivatives: a novel series of 5-HT(2A/2C) receptor antagonists. Part 1” (Bioorg Med Chem Lett, 2002)

Experiments:
[1] = biological target: T1, 5-hydroxytryptamine receptor 2C (Rattus norvegicus) (UniProt P08909); assay: In vivo activity in rat mCPP challenge test following p.o. administration.; assay type: functional, organism-based
T1 sequence (whole entry): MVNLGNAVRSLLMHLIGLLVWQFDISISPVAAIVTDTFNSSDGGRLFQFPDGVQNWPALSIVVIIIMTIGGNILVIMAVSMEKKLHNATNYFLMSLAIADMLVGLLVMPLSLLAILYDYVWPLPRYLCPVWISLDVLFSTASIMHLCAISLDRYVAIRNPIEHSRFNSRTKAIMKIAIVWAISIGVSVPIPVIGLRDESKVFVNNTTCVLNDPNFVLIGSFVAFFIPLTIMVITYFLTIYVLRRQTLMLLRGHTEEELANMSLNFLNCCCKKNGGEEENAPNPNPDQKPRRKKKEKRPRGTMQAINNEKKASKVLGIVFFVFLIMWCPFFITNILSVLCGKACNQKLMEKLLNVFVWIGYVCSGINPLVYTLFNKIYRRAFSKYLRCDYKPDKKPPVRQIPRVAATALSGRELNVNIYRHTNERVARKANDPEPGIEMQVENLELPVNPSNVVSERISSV

Histamine H1 receptor = Histamine H1 receptor (Homo sapiens, UniProt P35367); assay: Binding affinity for human cloned Histamine H1 receptor expressed in CHO cells using [3H]pyrilamine as radioligand; assay type: cell-based
[2] = biological target: 5-hydroxytryptamine receptor 2A (Homo sapiens, UniProt P28223); assay: biochemical; assay type: cell-based, L929
Description: Binding affinity for human cloned 5-hydroxytryptamine 2A receptor expressed in L929 cells using [125I]R91150 as radioligand

[3] = biological target: T2, 5-hydroxytryptamine receptor 2C (Homo sapiens, UniProt P28335); assay: Binding affinity for human cloned 5-hydroxytryptamine 2C receptor expressed in CHO cells using [3H]mesulergine as radioligand; assay type: cell-based
T2 sequence (P28335 whole entry): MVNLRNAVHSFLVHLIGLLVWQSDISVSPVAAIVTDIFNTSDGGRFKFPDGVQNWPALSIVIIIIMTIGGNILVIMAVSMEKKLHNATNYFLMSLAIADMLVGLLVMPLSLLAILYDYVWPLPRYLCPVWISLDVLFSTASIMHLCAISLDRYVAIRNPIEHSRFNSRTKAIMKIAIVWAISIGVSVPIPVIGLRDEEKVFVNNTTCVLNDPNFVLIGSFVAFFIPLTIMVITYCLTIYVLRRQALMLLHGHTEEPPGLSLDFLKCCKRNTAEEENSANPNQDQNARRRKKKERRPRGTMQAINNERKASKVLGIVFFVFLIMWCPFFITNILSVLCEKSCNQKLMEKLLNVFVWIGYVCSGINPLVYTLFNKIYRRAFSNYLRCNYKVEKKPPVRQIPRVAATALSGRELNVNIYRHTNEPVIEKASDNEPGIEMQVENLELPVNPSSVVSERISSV

D(3) dopamine receptor = D(3) dopamine receptor (Homo sapiens, UniProt P35462); assay: Binding affinity for human cloned Dopamine receptor D3
D(2) dopamine receptor [4] = biological target: D(2) dopamine receptor (Rattus norvegicus, UniProt P61169); assay: Binding affinity for rat Dopamine receptor D2
[5] = biological target: T3, Alpha-2A adrenergic receptor (Homo sapiens, UniProt P08913); assay: Binding affinity for human cloned Alpha-2A adrenergic receptor
T3 sequence (P08913 whole entry): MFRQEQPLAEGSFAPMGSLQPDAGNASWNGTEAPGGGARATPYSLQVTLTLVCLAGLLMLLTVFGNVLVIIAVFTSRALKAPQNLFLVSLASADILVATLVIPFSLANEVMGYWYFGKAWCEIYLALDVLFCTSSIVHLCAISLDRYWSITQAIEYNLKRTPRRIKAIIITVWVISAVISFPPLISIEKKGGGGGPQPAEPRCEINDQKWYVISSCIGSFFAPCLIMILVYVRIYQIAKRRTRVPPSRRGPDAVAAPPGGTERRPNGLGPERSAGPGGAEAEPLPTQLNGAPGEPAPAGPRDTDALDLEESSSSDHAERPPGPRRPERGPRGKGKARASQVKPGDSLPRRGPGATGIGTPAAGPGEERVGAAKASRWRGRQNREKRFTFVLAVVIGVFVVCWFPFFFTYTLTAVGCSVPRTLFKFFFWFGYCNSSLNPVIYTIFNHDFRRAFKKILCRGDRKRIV

D(2) dopamine receptor [6] = biological target: D(2) dopamine receptor (Homo sapiens, UniProt P14416); assay: Binding affinity for human cloned Dopamine receptor D2L
[7] = biological target: T4, Alpha-1A adrenergic receptor (Homo sapiens, UniProt P35348); assay: Binding affinity for human cloned Alpha-1A adrenergic receptor
T4 sequence (P35348 whole entry): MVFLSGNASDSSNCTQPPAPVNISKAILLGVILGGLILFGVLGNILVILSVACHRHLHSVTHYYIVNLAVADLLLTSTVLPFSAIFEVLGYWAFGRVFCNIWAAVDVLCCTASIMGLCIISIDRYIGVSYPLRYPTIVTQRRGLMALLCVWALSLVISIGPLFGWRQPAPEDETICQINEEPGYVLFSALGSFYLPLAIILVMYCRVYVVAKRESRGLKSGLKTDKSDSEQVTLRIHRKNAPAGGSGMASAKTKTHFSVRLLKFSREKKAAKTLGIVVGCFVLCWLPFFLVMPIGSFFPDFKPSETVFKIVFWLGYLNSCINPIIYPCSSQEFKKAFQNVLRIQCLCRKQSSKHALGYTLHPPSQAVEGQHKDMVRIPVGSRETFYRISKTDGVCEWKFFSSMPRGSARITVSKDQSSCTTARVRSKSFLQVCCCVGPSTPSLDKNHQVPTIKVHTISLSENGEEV

D(4) dopamine receptor = biological target: T5, D(4) dopamine receptor (Homo sapiens, UniProt P21917); assay: Binding affinity for human cloned Dopamine receptor D4
T5 sequence (P21917 whole entry): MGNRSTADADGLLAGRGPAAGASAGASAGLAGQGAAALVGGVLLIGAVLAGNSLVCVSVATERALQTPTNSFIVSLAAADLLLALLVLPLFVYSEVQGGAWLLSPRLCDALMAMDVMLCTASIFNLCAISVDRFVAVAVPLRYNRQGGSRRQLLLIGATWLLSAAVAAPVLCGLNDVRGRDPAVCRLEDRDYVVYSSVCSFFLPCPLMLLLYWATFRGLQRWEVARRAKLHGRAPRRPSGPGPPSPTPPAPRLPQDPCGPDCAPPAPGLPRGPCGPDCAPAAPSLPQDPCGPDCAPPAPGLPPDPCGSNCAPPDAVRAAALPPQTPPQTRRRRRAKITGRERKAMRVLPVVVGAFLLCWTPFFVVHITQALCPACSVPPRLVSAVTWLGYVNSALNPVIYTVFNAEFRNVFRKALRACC

[8] = biological target: T6, Alpha-2C adrenergic receptor (Homo sapiens, UniProt P18825); assay: Binding affinity for human cloned Alpha-2C adrenergic receptor
T6 sequence (P18825 whole entry): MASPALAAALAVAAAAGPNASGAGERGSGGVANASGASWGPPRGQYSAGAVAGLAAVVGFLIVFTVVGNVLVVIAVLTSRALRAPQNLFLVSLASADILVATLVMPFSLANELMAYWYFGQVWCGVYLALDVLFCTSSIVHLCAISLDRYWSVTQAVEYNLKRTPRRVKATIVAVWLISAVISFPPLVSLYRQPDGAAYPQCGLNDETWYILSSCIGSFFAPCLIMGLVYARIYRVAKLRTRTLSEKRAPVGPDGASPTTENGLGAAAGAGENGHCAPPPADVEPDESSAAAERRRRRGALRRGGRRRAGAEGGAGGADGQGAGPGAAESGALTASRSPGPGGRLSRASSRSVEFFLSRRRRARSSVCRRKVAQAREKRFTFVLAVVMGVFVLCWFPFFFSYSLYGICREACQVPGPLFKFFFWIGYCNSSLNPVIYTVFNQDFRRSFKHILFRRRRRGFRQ

Rattus norvegicus = assay: In vivo activity in mCPP challenge test were performed in male Wistar rats by subcutaneous administration; assay type: functional
[9] = biological target: Serotonin 3 (5-HT3) receptor; assay: Binding affinity for human cloned 5-hydroxytryptamine 3 receptor; assay type: protein-complex assay
[10] = biological target: 5-hydroxytryptamine receptor 1D (Homo sapiens, UniProt P28221); assay: Binding affinity for human cloned 5-hydroxytryptamine 1D receptor
[11] = biological target: T7, 5-hydroxytryptamine receptor 1A (Homo sapiens, UniProt P08908); assay: Binding affinity for human cloned 5-hydroxytryptamine 1A receptor
T7 sequence (P08908 whole entry): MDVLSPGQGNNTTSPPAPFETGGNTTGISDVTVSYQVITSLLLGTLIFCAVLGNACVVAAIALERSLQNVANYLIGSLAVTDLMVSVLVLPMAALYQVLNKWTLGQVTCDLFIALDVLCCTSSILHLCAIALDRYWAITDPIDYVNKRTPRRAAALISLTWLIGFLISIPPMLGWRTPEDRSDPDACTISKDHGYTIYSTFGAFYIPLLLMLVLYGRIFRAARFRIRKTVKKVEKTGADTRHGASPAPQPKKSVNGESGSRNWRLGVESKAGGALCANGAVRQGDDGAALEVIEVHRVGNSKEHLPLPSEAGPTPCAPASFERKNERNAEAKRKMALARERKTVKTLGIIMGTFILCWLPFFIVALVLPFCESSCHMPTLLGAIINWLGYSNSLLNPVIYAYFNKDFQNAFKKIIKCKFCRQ

[12] = Rattus norvegicus, sc, read-out: ED50

Chain of D(2) dopamine receptor (Homo sapiens, UniProt P14416) (P14416 whole entry): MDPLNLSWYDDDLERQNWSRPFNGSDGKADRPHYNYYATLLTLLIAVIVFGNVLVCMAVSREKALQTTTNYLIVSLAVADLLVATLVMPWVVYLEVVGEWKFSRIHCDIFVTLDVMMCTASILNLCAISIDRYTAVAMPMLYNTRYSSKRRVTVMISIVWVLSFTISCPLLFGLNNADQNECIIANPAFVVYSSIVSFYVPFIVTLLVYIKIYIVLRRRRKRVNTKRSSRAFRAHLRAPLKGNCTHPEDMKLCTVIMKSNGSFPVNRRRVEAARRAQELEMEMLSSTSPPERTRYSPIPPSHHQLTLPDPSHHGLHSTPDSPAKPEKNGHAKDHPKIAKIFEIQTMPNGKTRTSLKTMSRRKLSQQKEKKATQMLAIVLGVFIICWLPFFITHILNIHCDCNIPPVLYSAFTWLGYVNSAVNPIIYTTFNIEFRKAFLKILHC
Chain of Histamine H1 receptor (P35367 whole entry): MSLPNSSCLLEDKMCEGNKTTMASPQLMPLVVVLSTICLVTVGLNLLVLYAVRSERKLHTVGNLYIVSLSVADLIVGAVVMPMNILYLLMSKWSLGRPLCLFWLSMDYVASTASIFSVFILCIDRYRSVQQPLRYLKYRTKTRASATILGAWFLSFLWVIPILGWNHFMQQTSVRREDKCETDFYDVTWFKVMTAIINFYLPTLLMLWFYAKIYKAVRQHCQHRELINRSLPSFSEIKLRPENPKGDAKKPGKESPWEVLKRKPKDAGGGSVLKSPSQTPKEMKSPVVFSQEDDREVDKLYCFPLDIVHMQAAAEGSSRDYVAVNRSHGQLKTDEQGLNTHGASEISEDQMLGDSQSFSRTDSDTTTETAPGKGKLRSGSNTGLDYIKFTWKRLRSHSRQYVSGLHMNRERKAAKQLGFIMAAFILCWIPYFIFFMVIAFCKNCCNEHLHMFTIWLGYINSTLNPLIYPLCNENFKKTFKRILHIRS
Chain of 5-hydroxytryptamine receptor 1D (P28221 whole entry): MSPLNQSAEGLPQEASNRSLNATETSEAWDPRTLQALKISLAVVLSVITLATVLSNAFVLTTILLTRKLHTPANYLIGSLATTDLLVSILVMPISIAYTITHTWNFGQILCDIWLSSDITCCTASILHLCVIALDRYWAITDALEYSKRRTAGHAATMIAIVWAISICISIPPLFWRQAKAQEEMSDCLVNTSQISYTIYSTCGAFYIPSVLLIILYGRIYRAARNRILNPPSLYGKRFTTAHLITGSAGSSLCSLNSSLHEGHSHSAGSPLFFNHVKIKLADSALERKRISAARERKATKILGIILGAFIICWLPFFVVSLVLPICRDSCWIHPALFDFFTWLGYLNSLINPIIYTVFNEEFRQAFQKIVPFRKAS
Chain of 5-hydroxytryptamine receptor 2A (P28223 whole entry): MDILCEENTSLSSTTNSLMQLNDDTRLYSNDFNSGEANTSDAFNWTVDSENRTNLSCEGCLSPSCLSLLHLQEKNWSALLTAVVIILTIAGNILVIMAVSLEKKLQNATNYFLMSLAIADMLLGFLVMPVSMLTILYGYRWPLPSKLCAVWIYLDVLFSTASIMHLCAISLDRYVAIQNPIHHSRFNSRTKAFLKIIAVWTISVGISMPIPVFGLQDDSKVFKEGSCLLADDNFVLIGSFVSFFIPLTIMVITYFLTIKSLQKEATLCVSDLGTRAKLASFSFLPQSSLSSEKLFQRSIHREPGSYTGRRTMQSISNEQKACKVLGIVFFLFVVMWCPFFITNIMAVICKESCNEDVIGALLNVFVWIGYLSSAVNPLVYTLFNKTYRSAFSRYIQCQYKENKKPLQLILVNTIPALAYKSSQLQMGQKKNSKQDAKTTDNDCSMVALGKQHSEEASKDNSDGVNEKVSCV
Chain of D(3) dopamine receptor (P35462 whole entry): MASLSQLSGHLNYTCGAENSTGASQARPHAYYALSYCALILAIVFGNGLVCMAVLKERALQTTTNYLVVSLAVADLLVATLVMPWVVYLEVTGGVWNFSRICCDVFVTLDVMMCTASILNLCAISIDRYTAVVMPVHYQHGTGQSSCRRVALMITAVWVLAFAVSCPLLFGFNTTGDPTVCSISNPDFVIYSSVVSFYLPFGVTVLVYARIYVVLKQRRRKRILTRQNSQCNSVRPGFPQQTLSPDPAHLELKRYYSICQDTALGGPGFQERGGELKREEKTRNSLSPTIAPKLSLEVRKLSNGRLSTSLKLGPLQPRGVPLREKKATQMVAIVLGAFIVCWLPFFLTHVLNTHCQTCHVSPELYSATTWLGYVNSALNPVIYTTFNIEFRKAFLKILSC
Chain of D(2) dopamine receptor (Rattus norvegicus, UniProt P61169) (P61169 whole entry): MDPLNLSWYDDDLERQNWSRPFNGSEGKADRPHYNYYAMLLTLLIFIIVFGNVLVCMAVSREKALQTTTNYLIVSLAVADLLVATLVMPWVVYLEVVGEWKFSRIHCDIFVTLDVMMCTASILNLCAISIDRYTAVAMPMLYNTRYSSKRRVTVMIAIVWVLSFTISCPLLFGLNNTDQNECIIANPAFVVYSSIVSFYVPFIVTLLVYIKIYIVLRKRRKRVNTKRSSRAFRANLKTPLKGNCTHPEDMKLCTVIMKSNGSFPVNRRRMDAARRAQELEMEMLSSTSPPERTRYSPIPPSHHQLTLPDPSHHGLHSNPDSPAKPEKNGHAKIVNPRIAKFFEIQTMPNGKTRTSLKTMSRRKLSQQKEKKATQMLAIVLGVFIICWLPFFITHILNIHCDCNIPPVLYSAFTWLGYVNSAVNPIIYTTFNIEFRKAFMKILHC

| Structure (SMILES) | ED50 [1] [mg/kg] | IC50 (Histamine H1 receptor) [nM] | IC50 [2] [nM] | IC50 [3] [nM] | other results |
| --- | --- | --- | --- | --- | --- |
| c1ccc2c(c1)Cc1ccccc1N1OC(CN3CCNCC3)CC21 (stereo not given) | > 2.5 | > 1000 | > 1000 | > 1000 |  |
| CN(C)C(=O)C1CC2c3ccccc3Cc3ccccc3N2O1 (stereo not given) | > 2.5 | > 1000 | > 1000 | > 1000 |  |
| NCC1CC2c3ccccc3Cc3ccccc3N2O1 (stereo not given) | > 2.5 | 200 | 15.8 | 5.62 |  |
| CN(C)CC1CC2c3ccccc3Cc3ccccc3N2O1 (stereo in doubt; 2a) |  | 6.76 | 22.9 | 12.3 | IC50 (D(3) dopamine receptor): 170 nM; IC50 (D(2) dopamine receptor [4]): 195 nM; IC50 [5]: 372 nM; IC50 (D(2) dopamine receptor [6]): 0.871 µM; IC50 [7]: 537 nM; IC50 (D(4) dopamine receptor): 132 nM; IC50 [8]: 1860 nM; ED50 (Rattus norvegicus): 0.04 mg/kg; pIC50 [9]: 5.92; IC50 [10]: 661 nM; IC50 [11]: 977 nM |
| CN1CCN(CC2CC3c4ccccc4Cc4ccccc4N3O2)CC1 (stereo not given) | > 2.5 |  | 282 | > 1000 | ED50 (Rattus norvegicus; [12]): > 2.5 mg/kg |
| CN(C)CC1(C)CC2c3ccccc3Cc3ccccc3N2O1 (stereo in doubt; cis) [listing 1 of 2 here] | > 2.5 |  |  |  |  |
| CN(C)CCCC1CC2c3ccccc3Cc3ccccc3N2O1 (stereo not given) | > 2.5 | 676 | 3.89 | 18.6 |  |
| c1ccc2c(c1)CN(CC1CC3c4ccccc4Cc4ccccc4N3O1)C2 (stereo not given) | > 2.5 | > 1000 | > 1000 | > 1000 |  |
| CN(C)CC1(C)CC2c3ccccc3Cc3ccccc3N2O1 (stereo in doubt; trans) [listing 1 of 2 here] | > 2.5 |  |  |  |  |
| c1ccc(N2CCN(CC3CC4c5ccccc5Cc5ccccc5N4O3)CC2)cc1 (stereo not given) |  | > 1000 | > 1000 | > 1000 |  |
| CN1CCN2c3ccccc3Cc3ccccc3C2C1 (stereo not given) [MIANSERIN] | 2.5 |  |  |  | IC50 (D(2) dopamine receptor [6]): 7.08 µM; IC50 [8]: 42.7 nM; ED50 (Rattus norvegicus; [12]): 0.16 mg/kg; IC50 [10]: 380 nM |
| CN(C)CC1CC2c3ccccc3Oc3ccc(Cl)cc3N2O1 (stereo not given) | > 2.5 | 102 | 1.91 | 3.8 | ED50 (Rattus norvegicus; [12]): > 2.5 mg/kg |
| CN(CC1CC2c3ccccc3Cc3ccccc3N2O1)C(=O)C(F)(F)F (stereo not given) | > 2.5 | > 1000 | > 1000 | 692 |  |
| CN(C)CC1(C)CC2c3ccccc3Cc3ccccc3N2O1 (stereo in doubt; cis) [listing 2 of 2 here] |  | 1.66 | 57.5 | 13.8 |  |
| CC(C)N(CC1CC2c3ccccc3Cc3ccccc3N2O1)C(C)C (stereo not given) | > 2.5 | 151 | > 1000 | 324 |  |
| CN(C)CCCCC1CC2c3ccccc3Cc3ccccc3N2O1 (stereo not given) | > 2.5 | > 1000 | > 1000 | > 1000 |  |
| CN(C)CC1(C)CC2c3ccccc3Cc3ccccc3N2O1 (stereo in doubt; trans) [listing 2 of 2 here] |  | 61.7 | > 1000 | 933 | ED50 (Rattus norvegicus; [12]): > 2.5 mg/kg |
| CCN(CC)CC1CC2c3ccccc3Cc3ccccc3N2O1 (stereo not given) | 2.5 | 13.5 | 42.7 | 14.5 |  |
| Clc1cccc(N2CCN(CC3CC4c5ccccc5Cc5ccccc5N4O3)CC2)c1 (stereo not given) | > 2.5 | > 1000 | > 1000 | > 1000 |  |
| CN(C)CCC1CC2c3ccccc3Cc3ccccc3N2O1 (stereo not given) | 2.5 | 83.2 | 91.2 | 37.2 | IC50 (D(3) dopamine receptor): > 1000 nM; IC50 (D(2) dopamine receptor [4]): > 1000 nM; IC50 [5]: > 1000 nM; IC50 (D(2) dopamine receptor [6]): 9.55 µM; IC50 [7]: 1910 nM; IC50 [8]: > 1000 nM; ED50 (Rattus norvegicus; [12]): 2.5 mg/kg; IC50 [10]: > 1000 nM; IC50 [11]: > 1000 nM |
| O=C1c2ccccc2C(=O)N1CC1CC2c3ccccc3Cc3ccccc3N2O1 (stereo not given) | > 2.5 | > 1000 | > 1000 | > 1000 |  |
| c1ccc2c(c1)Cc1ccccc1N1OC(CN3CCOCC3)CC21 (stereo not given) |  | 26.3 | 141 | > 1000 | ED50 (Rattus norvegicus; [12]): 2.5 mg/kg |
| c1ccc2c(c1)Cc1ccccc1N1OC(CN3CCCC3)CC21 (stereo not given) | > 2.5 | 3.02 | 25.1 | 16.2 | ED50 (Rattus norvegicus; [12]): > 2.5 mg/kg |
| CN(C)CC1CC2c3ccccc3Cc3ccccc3N2O1 (trans isomer) |  | > 1000 | > 1000 | > 1000 | ED50 (Rattus norvegicus): >2.5 mg/kg |
